# Measured values from PubChem BioAssay AID504765 (Sanford-Burnham Center for Chemical Genomics, 2011).
# Calls of active or inactive are those of the source. The rule behind the calls is not given here.
# Target: glucose-6-phosphate dehydrogenase-6-phosphogluconolactonase (Plasmodium falciparum 3D7)
# Assay: PfG6PD inhibitor potency, dose response, biochemical, fluorescence intensity (AID 504765)
# Details: Recombinant PfG6PD enzyme, fluorescence intensity (NADPH)
row,SMILES,IC50
1,COc1ccc2c(c1)c(=Cc1ccc(N(C)C)cc1)c1cc(-c3ccccc3)[n+](C)n12,17.2 µM
2,Cc1ccc(S(=O)(=O)N(C(=O)c2ccncc2)c2ccc(OC(=O)c3ccncc3)c3ccccc23)cc1,17.7 µM
3,CC1(C)CC2(CC(c3ccccc3F)c3ccc(O)c(O)c3O2)NC(=S)N1 (configuration not stated),12.8 µM
4,O=C(CSc1nc2ccc(Cl)cc2[nH]1)NC1CCCc2ccccc21 (configuration not stated),15.6 µM
5,CC1(C)CN(c2ccccc2)N(C(=O)c2ccc(C#N)cc2)C1=O,9.37 µM
6,COc1ccc(OCc2nnc3n2N=C(c2ccccc2)C(CC(=O)O)S3)cc1 (configuration not stated),inactive
7,Cc1[nH]c(=S)c(C#N)c(C)c1CCC#N,inactive
8,O=C(CNc1ccc2c(c1)OCO2)N/N=C\c1cn(Cc2ccccc2)c2ccccc12,inactive
9,COc1cc(/C=C2\SC(c3ccc(C)cc3)=NC2=O)cc(OC)c1O,9.38 µM
10,O=C1C(c2cc(=O)c3ccccc3[nH]2)=C(O)c2ccccc21,8.25 µM
11,O=C1NC(=O)N(c2ccccc2)C(=O)/C1=C/c1ccc([N+](=O)[O-])s1,10 µM
12,c1cc(CNc2ccc3c(c2)OCO3)ccn1,inactive
13,CCc1ccc(OCC(=O)N/N=C/c2cc([N+](=O)[O-])ccc2N2CCOCC2)cc1,8.3 µM
14,COc1cc(N=c2ssnc2Cl)cc(OC)c1,13.2 µM
15,Clc1ccc2nc(-c3ccc4c(c3)OCO4)cn2c1,inactive
16,Cc1ccc(/C=C/C(=O)N2CCN(S(=O)(=O)c3ccc(C)c(C)c3)CC2)o1,inactive
17,Cc1cc(C)nc(NC(N)=NCCc2ccccc2)n1,15 µM
18,Cc1cc(C)nc(SSc2nc(C)cc(C)n2)n1,3.06 µM
19,CN1C(=O)CSc2ccc(NC(=O)N3CCc4ccccc43)cc21,15.2 µM
20,CCC1(C)CC(C(N)=S)CCO1 (configuration not stated),inactive
21,COc1ccc(N=C2C(=S)N(c3ccc(OC)cc3)C(=NS(=O)(=O)c3ccccc3)N2c2ccccc2)cc1,2.38 µM
22,CCN(CC)C(=O)c1c(C)[nH]c(=S)c(C#N)c1-c1ccco1,inactive
23,O=C(Sc1n[nH]c(=O)[nH]c1=O)c1ccccc1,3.33 µM
24,CCn1c2ccccc2c2nc3cc(S(=O)(=O)N4CCOCC4)ccc3nc21,inactive

row,SMILES,IC50
1,O=C(Nc1ccc(N2CCOCC2)c(Cl)c1)c1ccc(Cl)cc1,4.87 µM
2,CC(NC1=CC(=O)c2cccnc2C1=O)C(O)c1ccccc1 (configuration not stated),4.03 µM
3,CCOC(=O)C1CCCN(C(=O)Cn2sc3nc(C)cc(C)c3c2=O)C1 (configuration not stated),3.15 µM
4,O=C(OCC(=O)c1ccc([N+](=O)[O-])cc1)/C(=C\c1ccc(Cl)cc1)NC(=O)c1ccccc1,inactive
5,CCOC(=O)c1ccc(-n2c(N)c(C(=O)NCC3CCCO3)sc2=S)cc1 (configuration not stated),inactive
6,O=C(CCC(=O)Nc1ccccc1Cl)N/N=C/c1ccccc1,3.17 µM
7,COc1cc(NCCCn2ccc(NC(=O)OCc3ccccc3)nc2=O)cc(OC)c1OC,17.6 µM
8,COc1ccc(CN(C)S(=O)(=O)c2nnc(NC(=O)c3cccc(C)c3)s2)cc1OC,6.89 µM
9,Cc1ccc2nc(-c3ccc(NC(=S)NC4CC(C)(C)NC(C)(C)C4)cc3)sc2c1,2.39 µM
10,CN1C(=O)C(N=Nc2ccc([N+](=O)[O-])cc2)SC1=S (configuration not stated),5.43 µM
11,O=c1[nH]sc2cc(F)ccc12,9.86 µM
12,O=c1c2ccccc2sn1-c1ccc(S(=O)(=O)N2CCCC2)cc1,6.88 µM
13,Nc1[nH]c(=O)[nH]c(=O)c1N=Cc1ccccc1,3.29 µM
14,Brc1cc2[nH]cnc2c2ccccc12,17.6 µM
15,Cc1cc(C)c2c(=O)n(CC(=O)N3CCC(N4CCCCC4)CC3)sc2n1,3.88 µM
16,CS(=O)(=O)c1ccc(N)c(SSc2cc(S(C)(=O)=O)ccc2N)c1,4.07 µM
17,COc1ccc(/C=C/c2nc3ccccc3n2C)cc1,8.04 µM
18,CCOc1ccc(NC(=O)Cn2sc3nc(C)cc(C)c3c2=O)cc1,1.85 µM
19,Cc1ccccc1-n1c(-c2ccc3ccccc3n2)n[nH]c1=S,14.4 µM
20,O=C(CCl)NCCN1C(=O)S/C(=C\c2cccnc2)C1=O,9.89 µM
21,Cn1c2ccccc2c2ccc3c(c21)C(=O)C=CC3=O,> 80 µM (inactive)
22,Cc1ccc(-c2c(C(=O)N/N=C/c3cccs3)nnn2-c2nonc2N)cc1,3.91 µM
23,CCn1c(=O)n(CC)c2cc(N3CCCC3)c(NC(=O)c3cccc(C)c3)cc21,inactive
24,Cc1ccc(NS(=O)(=O)c2ccccc2Cl)c2c1CC(C)(C)O2,8.18 µM

row,SMILES,IC50
1,COc1ccc(Nc2cc(C)c3c(O)cccc3n2)cc1,5.06 µM
2,CN=c1nc(-c2ccccc2)n(-c2ccccc2)s1,4.82 µM
3,COc1ccc(C2(CNC(=O)c3ccc(OC)c([N+](=O)[O-])c3)CCCCC2)cc1OC,8.33 µM
4,Cc1cc(C)c(NC(=S)NCC2CCN(C(C)c3ccccc3)C2)c(C)c1 (configuration not stated),14.8 µM
5,O=c1[nH]c2ccccc2n2c(-c3ccccc3)nnc12,1.65 µM
6,N#CC(C#N)=C1C=CC=CN1/C(=C\c1ccccc1Cl)C(=O)c1ccccc1,8.31 µM
7,CCn1c2ccccc2c2cc(/C=N/n3cn[nH]c3=S)ccc21,9.81 µM
8,C/C(Cn1nnc([N+](=O)[O-])n1)=N\NC(=O)c1ccc(O)cc1,14.6 µM
9,CC1(C)Nc2ccc(O)cc2-c2c1ssc2=S,inactive
10,Cc1cc(C)c2c(=O)n(CC(=O)NC3CCCC3)sc2n1,1.97 µM
11,CCN(CC)c1ccc(NC(=O)c2cccc(C)c2)cc1S(=O)(=O)Nc1ccccc1OC,inactive
12,COc1cc(/C=C2\CC/C(=C\c3cc(OC)c(O)c(OC)c3)C2=O)cc(OC)c1O,17.1 µM
13,Cc1ccc(S(=O)(=O)SC/C=C/CSS(=O)(=O)c2ccc(C)cc2)cc1,10.3 µM
14,CC(C)Sc1nnc(NC(=O)c2ccc3c(c2)OCO3)s1,4.21 µM
15,Cc1c(C(=O)N(Cc2ccccc2Cl)C2CCS(=O)(=O)C2)oc2ccccc12 (configuration not stated),4.36 µM
16,CCOC(=O)Nc1ccc(NCc2ccc(F)cc2)nc1N,3 µM
17,CCCCC1C(=O)N(c2ccccc2)N(c2ccc(O)cc2)C1=O (configuration not stated),12.5 µM
18,Nc1c(O)cccc1C(=O)O,1.44 µM
19,Cc1ccc(S(=O)c2ccc([N+](=O)[O-])c3nonc23)cc1 (configuration not stated),8.19 µM
20,Cc1cc(C)c(S(=O)(=O)/N=C2/C=C(SCC(=O)O)C(=O)c3ccccc32)cc1C,2.41 µM
21,Cc1cccc(C(=O)Nc2nnc(S(=O)(=O)N3CCCCCC3)s2)c1,6.58 µM
22,CCn1c(N)c(C(=O)NC)sc1=S,inactive
23,CCc1c(C(=O)Nc2ccccc2)c(C)[nH]c(=S)c1C#N,inactive
24,Cc1ccc(S(=O)(=O)NNc2ccccc2)cc1,inactive

row,SMILES,IC50
1,COc1cc(/C=C/C(=O)c2ccc([N+](=O)[O-])o2)ccc1O,5.16 µM
2,Oc1ccc(C23CC4CC(CC(C4)C2)C3)cc1O,inactive
3,Cc1ccc(CNc2ccc(O)cc2)cc1,8.8 µM
4,Cc1cccc(OCC(=O)NCC(=O)N/N=C/c2ccccc2)c1,9.37 µM
5,CCOC(=O)Cc1csc(-n2sc3ccccc3c2=O)n1,2.82 µM
6,O=c1c2ccccc2sn1-c1ccc(Cl)cc1Cl,3.98 µM
7,CCOC(=O)c1sc(NC(=O)CSc2nnc(Cc3ccccc3)o2)c(C#N)c1C,inactive
8,Cc1nnc(N/N=C/c2ccc(-c3ccccc3F)o2)n1N,16.9 µM
9,CC1=NOC(=O)/C1=C\c1ccc(-c2ccccc2Br)o1,inactive
10,O=C(O)CSc1cc(NS(=O)(=O)c2ccc(Cl)cc2)c2ccccc2c1O,4.17 µM
11,Cn1c(=O)c2[nH]c(-c3ccccc3)c(O)c2n(C)c1=O,9.54 µM
12,[O-]/[N+](=C\c1ccncc1)c1ccccc1,9.54 µM
13,COc1c(O)c(O)c2oc(-c3ccccc3)cc(=O)c2c1OC,10.6 µM
14,Cc1ccc(-c2nc(N)s[n+]2-c2ccccc2)cc1,9.13 µM
15,Cc1cc(N=NC(=O)c2ccccc2O)c2ccccc2c1O,inactive
16,O=C(CCc1ccc(O)c(O)c1)N/N=C/c1cc2c(cc1[N+](=O)[O-])OCO2,14 µM
17,COc1cccc(/C=N/NC(=O)CSc2cccc3cccnc23)c1,5.46 µM
18,Cn1c(-c2sccc2OCc2cccc(C(F)(F)F)c2)n[nH]c1=S,inactive
19,Cc1ccc(-c2c(C(=O)N/N=C/c3ccsc3)nnn2-c2nonc2N)cc1,inactive
20,CC1=CC(C)(C)Nc2ccc(OC(=O)CN3C(=O)c4cccc5cccc(c45)C3=O)cc21,6.28 µM
21,COc1cc(O)c(C(=O)O)c(-c2cc(O)c(O)cc2C)c1,3.75 µM
22,O=c1c2ccc(F)cc2sn1-c1ccccc1,1.98 µM
23,COc1cc(N)c2ncccc2c1Cl,6.92 µM
24,COC1=C(Br)C(=O)c2nc(C)ccc2C1=O,4.24 µM

row,SMILES,IC50
1,O=c1[nH]nc(CNc2ccc(O)cc2)c2ccccc12,inactive
2,Cc1cc(O)c(C(C)C)cc1N=Cc1ccc(N(C)C)cc1,4.4 µM
3,CN(C)c1ccc2nc3ccc(=O)cc-3sc2c1,13.2 µM
4,Cc1cc(=O)[nH]c(N/N=C/c2c(C)nn(-c3ccccc3)c2Cl)n1,8.43 µM
5,O=C1NC(=O)C(=Cc2ccc(-c3ccccc3[N+](=O)[O-])o2)C(=O)N1,10.9 µM
6,COc1cccc(C2(c3cccc(OC)c3)CC2C(=O)Nc2ccc(F)cc2)c1 (configuration not stated),10.3 µM
7,COc1ccc(/C=C/c2nc3ccccc3n2Cc2ccc(OC)c(OC)c2)cc1,inactive
8,CCN1CCN(C(=S)c2ccc(O)cc2)CC1,inactive
9,COc1cc(CNc2ccc3[nH]c(=O)[nH]c3c2)ccc1OCc1ccccc1,inactive
10,O=C1C(=Cc2cccc(O)c2O)SC(=S)N1CCCN1CCOCC1,14.1 µM
11,COc1ccc(Cl)cc1NC(=O)c1cccc([N+](=O)[O-])c1O,8.87 µM
12,CC(CNc1ccccc1O)C(=O)O (configuration not stated),6.16 µM
13,CCOc1ccc(Cl)cc1/C=N/NC(N)=O,12.4 µM
14,Cn1sc2ccccc2c1=O,5.82 µM
15,Cc1ccc(NC(=O)c2cc(C)n(-c3ccccc3)c2C)cc1,14.1 µM
16,O=C(CNC(=O)c1cccs1)OCC(=O)c1ccc([N+](=O)[O-])cc1,13.9 µM
17,O=C1C=CC(=O)N1CCCCCCCCCCN1C(=O)C=CC1=O,13.5 µM
18,CN(C)C=Nc1ccc2nc3c(cc2c1)[nH]c1ccccc13,9.98 µM
19,N#Cc1c(C#N)c(SSc2c(C#N)c(C#N)c(N)n2-c2ccccc2)n(-c2ccccc2)c1N,1.41 µM
20,CCCn1cc(S(=O)(=O)CC(=O)Nc2ccc(OC)cc2OC)c2ccccc21,7.87 µM
21,CCOC(=O)Cc1cc(=O)n2[nH]c(C(C)(C)C)cc2n1,7.04 µM
